Assay results published in ChEMBL document CHEMBL1154963, “Part 2: Structure-activity relationship (SAR) investigations of fused pyrazoles as potent, selective and orally available inhibitors of p38alpha mitogen-activated protein kinase” (Bioorg Med Chem Lett, 2010).

Columns and labels:
Type in all cases: ADME, organism-based
[1] = Clearance in Sprague-Dawley rat at 2 mg/kg, iv; parameters: dose 2 mg/kg, route intravenous; conditions: in vivo
[2] = Volume of distribution at steady state in Sprague-Dawley rat at 2 mg/kg, iv; parameters: dose 2 mg/kg, route intravenous; conditions: in vivo, read-out: Vdss
[3] = Half life in Sprague-Dawley rat at 2 mg/kg, iv; parameters: dose 2 mg/kg, route intravenous; conditions: in vivo
[4] = AUC (0 to infinity) in Sprague-Dawley rat at 2 mg/kg, po; parameters: time infinity, dose 2 mg/kg, route oral; conditions: plasma
[5] = Oral bioavailability in Sprague-Dawley rat at 2 mg/kg; conditions: in vivo

clearance [1] [mL/min/kg]	Vd [2] [L/kg]	half-life [3] [h]	AUC(0-inf) [4] [ng·h/mL]	bioavailability [5] [%]	SMILES
3.67	1.1	3.6	6830	75	O=C(NC1CC1)c1ccc(Cl)c(Nc2nncc3c2cnn3-c2c(F)cccc2F)c1
2.67	0.89	3.5	6550	53	O=C(NC1CC1)c1ccc(Cl)c(Nc2nncc3c2cnn3-c2ccc(F)cc2F)c1
9.67	1.6	2.8	671	19	Cc1ccc(C(=O)NC2CC2)cc1Nc1nncc2c1cnn2-c1c(F)cccc1F
7.83	1.4	2.2	3880	91	Cc1nnc(Nc2cc(C(=O)NC3CC3)ccc2Cl)c2cnn(-c3c(F)cccc3F)c12
